T1: COMT (Homo sapiens, UniProt P21964)
T1 construct: made in house; host or cells: Escherichia coli DH5αF′Iq
T1 sequence (P21964 51-271): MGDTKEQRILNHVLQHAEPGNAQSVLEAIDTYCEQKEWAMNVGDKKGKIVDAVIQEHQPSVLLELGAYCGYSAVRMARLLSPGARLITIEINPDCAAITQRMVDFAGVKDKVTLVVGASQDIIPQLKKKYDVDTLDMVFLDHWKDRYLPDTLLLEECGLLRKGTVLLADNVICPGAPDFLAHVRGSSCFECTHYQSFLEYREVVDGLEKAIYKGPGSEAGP

B1: Variant 2: recombinant CYP1B1 with 48Arg, 119Ser, 432Val, 453Asn (protein, UniProt Q16678 1-543, looked up, variant A119S)
Cytochrome P450 1B1: MGTSLSPNDPWPLNPLSIQQTTLLLLLSVLATVHVGQRLLRQRRRQLRSAPPGPFAWPLIGNAAAVGQAAHLSFARLARRYGDVFQIRLGSCPIVVLNGERAIHQALVQQGSAFADRPSFASFRVVSGGRSMAFGHYSEHWKVQRRAAHSMMRNFFTRQPRSRQVLEGHVLSEARELVALLVRGSADGAFLDPRPLTVVAVANVMSAVCFGCRYSHDDPEFRELLSHNEEFGRTVGAGSLVDVMPWLQYFPNPVRTVFREFEQLNRNFSNFILDKFLRHCESLRPGAAPRDMMDAFILSAEKKAAGDSHGGGARLDLENVPATITDIFGASQDTLSTALQWLLLLFTRYPDVQTRVQAELDQVVGRDRLPCMGDQPNLPYVLAFLYEAMRFSSFVPVTIPHATTANTSVLGYHIPKDTVVFVNQWSVNHDPLKWPNPENFDPARFLDKDGLINKDLTSRVMIFSVGKRRCIGEELSKMQLFLFISILAHQCDFRANPNEPAKMNFSYGLTIKPKSFKVNVTLRESMELLDSAVQNLQAKETCQ

Assays:
[1] = test system: renal DNA; conditions: in vivo; cited from earlier work
[2] = test system: DNA; conditions: cited from earlier work
[3] = biological target: T1, COMT; assay: Assay of COMT activity, purified recombinant His-COMT, methylation of catechol estrogens; format: biochemical; conditions: substrate 2-100 μM
Protocol: Assay of COMT Activity. Purified recombinant His-COMT (300 pmol) was reconstituted 0.5 ml of 100 mM KPO4, pH 7.4, containing 5 mM MgCl2, 10 mM β-mercaptoethanol, and 200 μM SAM. Reactions were initiated by adding varying concentrations of each individual catechol estrogen (2, 3, 6, 9, 12, 15, 20, 40, 60, 80, and 100 μM). Blanks contained all compounds except SAM. Reactions proceeded for 10 min at 37° C. with gentle shaking and then were terminated by addition of 2 ml CH2Cl2. To determine COMT activity in breast cancer cells, ZR-75 and MCF-7 cells were harvested at confluency and homogenized in 100 mM KPO4, pH 7.4, 5 mM MgCl2, 10 mM β-mercaptoethanol. Following ultracentrifugation of the cell homogenate (110,000 g, 30 min, 4° C.), the supernatant cytosol was divided into aliquots for ICELISA, protein determination (BCA assay; Pierce, Rockford, Ill.), and COMT assay. The latter was carried out in the presence of 200 μM SAM and 100 μM catechol estrogen for 20 min at 37° C. and then terminated by addition of CH2Cl2. The concentration of endogenous catechol and methoxy estrogens was below the limit of detection by gas chromatography/mass spectrometry.
Extraction and Gas Chromatography/Mass Spectrometry Analysis of Catechol Estrogens. A deuterated internal standard (100 μl of 8 mg/liter E2-d4 in methanol) was added and all estrogens extracted into the CH2Cl2 by vortex mixing for 30 s. 1.5 ml of the CH2Cl2 fraction was evaporated to dryness under air and volatile TMS derivatives prepared by heating the residue with 100 μl of 50% NO-bis(trimethylsilyl)trifluoroacetamide/1% trimethyl chlorosilane in acetonitrile at 56° C. for 30 min. The TMS derivatives of the estrogen metabolites were separated by gas chromatography (H-P 5890, Hewlett-Packard, Wilmington, Del.) on a 5% phenyl methyl silicone stationary phase fused silica capillary column (30 m×0.2 mm×0.5 μm film, HP5; Hewlett-Packard). Helium carrier gas was used at a flow of 1 ml/min. The injector was operated at 250° C., with 2 μl injected in the splitless mode, with a purge (60 ml/min helium) time of 0.6 min. The oven temperature was held at 180° C. for 0.5 min, then raised at 6° C./min to 250° C. where it was held for 17 min, then raised to 300° C. at 8° C./min to give a total run time of 35.42 min. This program permitted adequate separation of a wide range of estrogen metabolites. Retention times (in min) for the TMS derivatives were E1 20.13, E2 and E2-d4 21.89, 4-MeOE1 23.52, 2-MeO-3-MeOE1 (underivatized) 23.75, 2-OH-3-MeOE1 24.87, 2-MeOE1 25.2, 4-MeOE2 25.78, 2-OHE1 and 2-MeO-3-MeOE2 26.19, 2-OH-3-MeOE2 26.9, 2-MeOE2 27.18, 4-OHE1 27.27, 6α-OHE2 27.29, 2-OHE2 27.44, 4-OHE2 28.06, E3 28.38. The EI mass spectrometer (H-P 5970) was operated in the selected ion monitoring mode from 18 to 30 min. Ions monitored were TMS-E1 342, 257, 343; TMS2-E2-d4 420, 421, 287; TMS2-E2 416, 417, 285; TMS-4-MeOE1, TMS-2-OH-3-MeOE1, TMS-2-MeOE1 and TMS-3-MeO-4-OHE1 372, 373, 342; 2-MeO-3-MeOE1 314, 315, 229; TMS2-4-MeOE2, TMS2-2-OH-3-MeOE2, TMS2-2-MeOE2 and TMS2-3-MeO-4-OHE2 446, 447, 315; TMS2-2-OHE1 430, 431, 432; TMS-2-MeO-3-MeOE2 388, 389, 257; TMS2-4-OHE1 430, 431, 345; TMS2-6α-OHE2 414, 283, 309; TMS3-2-OHE2 and TMS3-4-OHE2 504, 505, 373; TMS3-E3 504, 505, 311 (FIG. 7). The instrument was calibrated by simultaneous preparation of an 11-point calibration over the range 0-22 nmol/tube of each compound. Sensitivity was determined to be between 0.02 and 0.04 nmol/tube (400-800 fmol on column) for the various compounds. […] Absolute extraction efficiency for E2, 2-OH-E2 and 4-OH-E2 at 3.5 nmol/tube was 119, 96, and 107% assessed by comparison to injections of spiked solvent samples onto the gas chromatograph. Internal standard added prior to extraction compensated for deviation from 100% recovery for all investigated compounds.
Statistical Analysis. […]

[4] = test system: Syrian hamster; conditions: in vivo; cited from earlier work
[5] = test system: DNA; conditions: cited from earlier work; remark: listed apart in the source
[6] = test system: CYP1B1; assay: Assay of CYP1B1 E2 hydroxylation activity; format: biochemical, human
Protocol: Assay of CYP1B1 E2 Hydroxylation Activity. Purified CYP1B1 (200 pmol) was reconstituted with a 2-fold molar amount of recombinant rat NADPH-P450 reductase (400 pmol), purified as previously described, and 60 μg of L-α-dilauroyl-sn-glycero-3-phosphocholine in the presence of sodium cholate (0.005%, w/v) in 0.4 ml of 100 mM potassium phosphate buffer, pH 7.4, containing varying concentrations of E2 (2, 3, 6, 9, 12, 15, 20, 40, 60, 80, and 100 μM) and 1 mM ascorbate. An NADPH-generating system consisting of 5 mM glucose 6-phosphate and 0.5 U of glucose-6-phosphate dehydrogenase/ml was added and reactions initiated by adding NADP+ to a final concentration of 0.5 mM. Reactions proceeded for 10 min at 37° C. with gentle shaking and then were terminated by addition of 2 ml CH2Cl2.
Extraction and Gas Chromatography/Mass Spectrometry Analysis of E2 and Metabolites. A deuterated internal standard (100 μl of 8 mg/liter E2-2, 4, 16, 16-d4 in methanol; CDN Isotopes, Pointe-Claire, Quebec) was added and all steroids extracted into CH2Cl2 by vortex mixing for 30 s. 1.5 ml of the CH2Cl2 fraction was evaporated to dryness under air and volatile TMS derivatives prepared by heating the residue with 100 μl of 50% NO-bis(trimethylsilyl)trifluoroacetamide/1% trimethyl chlorosilane in acetonitrile at 56° C. for 30 min. The TMS derivatives of E2 and its metabolites were separated by gas chromatography (H-P 5890, Hewlett-Packard, Wilmington, Del.) on a 5% phenyl methyl silicone stationary phase fused silica capillary column (30 m×0.2 mm×0.5 μm film, HP5; Hewlett-Packard). Helium carrier gas was used at a flow of 1 ml/min. The injector was operated at 250° C., with 2 μl injected in the splitless mode, with a purge (60 ml/min helium) time of 0.6 min. The oven temperature was held at 189° C. for 0.5 min, then raised at 6° C./min to 250° C. where it was held for 17 min, then raised to 300° C. at 8° C./min to give a total run time of 35.42 min. […] The EI mass spectrometer (H-P 5970) was operated in the selected ion monitoring mode from 18 to 34 min. Ions monitored were TMS2-E2-d4 420, 288, 330; TMS2-E2 416, 285, 326; TMS3-2-OH-E2 504, 373; TMS3-4-OH-E2 504, 373, 325; TMS3-16α-OH-E2 345, 311, 504. The instrument was calibrated by simultaneous preparation of an 11-point calibration over the range […]/tube of each compound. […] Internal standard added prior to extraction compensated for deviation from 100% recovery.
Statistical Analysis. Kinetic parameters (Km and kcat) were determined by nonlinear regression analysis using the computer program GraphPad PRISM (San Diego, Calif.).

pattern of rates of methylation [3]	Molecule	levels of the oxidized base 8-hydroxy-deoxyguanosine [1]	DNA single-strand breaks [2]	induction of renal cancer [4]	levels of depurinating DNA adducts versus E2-2,3Q and E1-2,3Q [5]	other results
typical hyperbolic patterns	C[C@]12CC[C@@H]3c4cc(O)c(O)cc4CC[C@H]3[C@@H]1CC[C@@H]2O [2-OHE2]	did not cause oxidative DNA damage	negligible effect	–	–	–
sigmoid curve pattern	C[C@]12CC[C@@H]3c4ccc(O)c(O)c4CC[C@H]3[C@@H]1CCC2=O [4-OHE1]	significantly increased	–	induced renal cancer	–	–
–	C[C@]12CC[C@@H]3C4=C(CC[C@H]3[C@@H]1CCC2=O)C(=O)C(=O)C=C4 [E1-3,4Q]	–	–	–	two to three orders of magnitude higher	–
–	C[C@]12CC[C@@H]3C4=C(CC[C@H]3[C@@H]1CC[C@@H]2O)C(=O)C(=O)C=C4 [E2-3,4Q]	–	–	–	two to three orders of magnitude higher	–
–	B1	–	–	–	–	2-OH-Estradiol kcat ([6]; E2 2-hydroxylation): 2.3 ± 0.1 min⁻¹; 4-OH-Estradiol kcat ([6]; E2 4-hydroxylation): 3.8 ± 0.1 min⁻¹; 16a-OH-Esrradiol kcat ([6]; E2 16α-hydroxylation): 0.34 ± 0.02 min⁻¹

Molecule	pattern of rates of methylation [3]	levels of the oxidized base 8-hydroxy-deoxyguanosine [1]	DNA single-strand breaks [2]	induction of renal cancer [4]	levels of depurinating DNA adducts versus E2-2,3Q and E1-2,3Q [5]	other results
C[C@]12CC[C@@H]3c4ccc(O)c(O)c4CC[C@H]3[C@@H]1CC[C@@H]2O [4-OHE2]	sigmoid curve pattern	significantly increased	induced DNA single-strand breaks	induced renal cancer	–	–

Reference: patent publication US20080076129A1, “Method of Detecting an Increased Susceptibility to Breast Cancer” (priority 2000, published 2008)
